# Reference: patent publication US8273880B2, “Pyrazole compounds with inhibitory activity against ROS kinase” (Korea Institute of Science and Technology, priority 2009, dated 2012)
# Entries after “also recorded” stand apart in the source; their conditions may differ.
# How the values were obtained:
# [1] = molecular target: ROS kinase (Homo sapiens, UniProt P08922); experiment: ROS kinase screening (HotSpot, IC50 mode); format: biochemical; design: purchased Reaction Biology Corporation; conditions: 10-dose IC50 mode starting from 20 μM; 10 μM ATP; read-out: Inhibitory Activity against ROS (IC50)
# Sequence of ROS kinase (P08922 28-2347): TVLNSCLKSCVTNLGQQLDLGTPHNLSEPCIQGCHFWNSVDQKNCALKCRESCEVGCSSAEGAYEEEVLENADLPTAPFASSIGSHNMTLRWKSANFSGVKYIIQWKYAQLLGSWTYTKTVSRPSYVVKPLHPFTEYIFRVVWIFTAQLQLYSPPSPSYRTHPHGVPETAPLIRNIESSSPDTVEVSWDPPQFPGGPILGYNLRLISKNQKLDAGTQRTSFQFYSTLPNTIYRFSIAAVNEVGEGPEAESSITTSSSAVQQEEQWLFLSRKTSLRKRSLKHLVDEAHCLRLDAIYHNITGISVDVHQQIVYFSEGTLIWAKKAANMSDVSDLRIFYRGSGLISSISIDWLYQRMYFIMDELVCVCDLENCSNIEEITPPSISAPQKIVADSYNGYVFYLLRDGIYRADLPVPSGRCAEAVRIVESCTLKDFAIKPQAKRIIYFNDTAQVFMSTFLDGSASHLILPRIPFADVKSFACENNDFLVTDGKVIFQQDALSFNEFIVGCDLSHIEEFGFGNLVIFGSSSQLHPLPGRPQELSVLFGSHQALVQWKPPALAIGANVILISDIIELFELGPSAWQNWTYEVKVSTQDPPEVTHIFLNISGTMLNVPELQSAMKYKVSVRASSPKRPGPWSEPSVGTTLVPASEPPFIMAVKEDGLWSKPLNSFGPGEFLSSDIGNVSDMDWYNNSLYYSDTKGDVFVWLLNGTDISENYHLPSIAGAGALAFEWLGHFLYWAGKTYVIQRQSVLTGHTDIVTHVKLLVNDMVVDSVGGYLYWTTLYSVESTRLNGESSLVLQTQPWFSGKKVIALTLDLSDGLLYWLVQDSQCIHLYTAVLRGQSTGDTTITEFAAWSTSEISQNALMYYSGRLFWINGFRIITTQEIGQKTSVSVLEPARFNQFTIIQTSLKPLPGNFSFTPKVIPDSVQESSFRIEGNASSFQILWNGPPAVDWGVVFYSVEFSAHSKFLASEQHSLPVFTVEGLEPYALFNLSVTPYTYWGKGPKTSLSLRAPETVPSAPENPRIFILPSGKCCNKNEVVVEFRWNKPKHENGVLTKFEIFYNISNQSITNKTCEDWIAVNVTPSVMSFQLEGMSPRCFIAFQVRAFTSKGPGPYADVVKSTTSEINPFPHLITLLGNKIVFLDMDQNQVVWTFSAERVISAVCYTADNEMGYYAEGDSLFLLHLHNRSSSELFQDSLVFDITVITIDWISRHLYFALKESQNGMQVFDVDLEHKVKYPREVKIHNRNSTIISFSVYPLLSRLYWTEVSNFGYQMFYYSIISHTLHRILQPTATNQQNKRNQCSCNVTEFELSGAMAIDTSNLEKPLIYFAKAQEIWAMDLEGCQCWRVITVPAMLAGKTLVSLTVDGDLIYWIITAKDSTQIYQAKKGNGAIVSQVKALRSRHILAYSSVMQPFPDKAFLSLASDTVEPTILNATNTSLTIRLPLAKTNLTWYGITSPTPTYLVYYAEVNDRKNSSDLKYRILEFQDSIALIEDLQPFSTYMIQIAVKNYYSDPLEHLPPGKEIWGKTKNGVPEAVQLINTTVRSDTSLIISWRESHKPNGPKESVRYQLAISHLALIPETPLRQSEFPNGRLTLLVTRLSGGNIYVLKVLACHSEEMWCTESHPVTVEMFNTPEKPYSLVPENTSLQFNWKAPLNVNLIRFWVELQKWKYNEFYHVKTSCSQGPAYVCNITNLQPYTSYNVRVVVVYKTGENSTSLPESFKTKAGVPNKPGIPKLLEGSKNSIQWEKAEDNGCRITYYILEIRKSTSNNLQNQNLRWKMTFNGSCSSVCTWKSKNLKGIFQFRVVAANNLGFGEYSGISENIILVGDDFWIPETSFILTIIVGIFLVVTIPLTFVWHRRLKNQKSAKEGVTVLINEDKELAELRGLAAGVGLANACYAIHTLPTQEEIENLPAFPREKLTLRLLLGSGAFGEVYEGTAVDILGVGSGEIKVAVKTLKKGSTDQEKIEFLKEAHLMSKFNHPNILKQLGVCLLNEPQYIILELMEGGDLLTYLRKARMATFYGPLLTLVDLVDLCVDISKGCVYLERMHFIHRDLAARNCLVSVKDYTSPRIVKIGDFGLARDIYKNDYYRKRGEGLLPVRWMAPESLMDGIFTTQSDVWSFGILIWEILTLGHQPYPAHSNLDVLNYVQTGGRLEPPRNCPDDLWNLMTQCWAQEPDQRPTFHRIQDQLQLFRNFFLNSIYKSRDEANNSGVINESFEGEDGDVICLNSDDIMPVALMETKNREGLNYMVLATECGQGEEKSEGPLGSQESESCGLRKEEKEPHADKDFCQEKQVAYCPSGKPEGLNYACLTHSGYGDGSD
# Experimental: (§1) Kinase screening was performed using a “HotSpot” assay platform commercially available from Reaction Biology Corporation. For this kinase screening, reaction buffers were based on 20 mM Hepes (pH 7.5), 10 mM MgCl2, 1 mM EGTA, 0.02% Brij35, 0.02 mg/mL BSA, 0.1 mM Na3VO4, 2 mM DTT, and 1% DMSO, with supplementary factors necessary for respective kinase reactions added thereto. In each enzyme reaction, […] of each kinase was used together with a fresh reaction buffer and appropriate supplementary factors. A solution of each compound in DMSO was added in a suitable concentration to the reaction buffer. Kinase reaction started with the introduction of […] (specific activity […]) and continued for 2 hours at room temperature.
# The reaction was performed with 10 μM ATP.
# [2] = tested on: 45 different kinases; experiment: Kinase selectivity from screening over 45 different kinases; format: biochemical
# Experimental: as §1
# 1) Screening of Compounds Over 45 Different Kinases
# Each compound was tested twice at a single dose concentration of 10 μM. […] The reaction was performed with 10 μM ATP.
smiles,measurement,setting,value
"Cc1cc(O)cc(-c2nn(CC#N)cc2-c2ccnc(-c3cccnc3)c2)c1 [Example 44, [3-(3-hydroxy-5-methylphenyl)-4-(2-(pyridin-3-yl)pyridin-4-yl)-pyrazol-1-yl]acetonitrile]",IC50,[1],0.209 µM
same,Notes (selectivity for ROS),[2],ROS selectivity; also recorded: Selective for ROS
